Assays:
[1] = test system: TGFα; assay: Immunohistochemistry of TGFα in respiratory tract tissue of sodium hypochlorite aerosol-treated rabbits; type: in vivo, New Zealand albino rabbits
Excerpt: It is known that the factors TGF-α, TGF-β 1, TGF-β 2, TGF-β 3, SPARC, MMP-3; MMP-7, MMP-9, MMP-11, MMP-13 and MMP-14, TGF-β, NF-kB, EGF, MMP-9, VEGF and TNF-α which are produced by lung cells (pneumocytes, fibroblasts and vascular endothelial cells) and inflammatory cells (macrophages, lymphocytes and polymorphonuclear leukocytes) are involved in the pathophysiology and development of said respiratory tract diseases. […] Herein, 27 New Zealand albino rabbits (New Zealand White Rabbit) with an initial average weight about 3 kg were used in this example. All subjects were administered an aerosol of a solution consisting of a mixture of water and sodium hypochlorite (35 g sodium hypochlorite per liter of water) at a rate of 5 mL of said solution by inhalation three times a day for 7 days (days 1 to 7 of experimentation). Subsequently, from days 3 to 7, a group of 3 rabbits (Group 1) was administered an oral dose of 10 mg/kg body weight per day, another group of 3 rabbits (Group 2) was administered an oral dose of 40 mg/kg body weight per day, a third group (Group 3) was administered an oral dose of 80 mg/kg body weight per day and a fourth group (Group 4) was administered an oral dose of 100 mg/kg body weight per day. […] This mixture was administered as an aerosol by inhalation, also from days 3 to 7, to a group of 3 rabbits (group 5) at a dose of 0.05 mg/kg body weight per day, to another group of three rabbits (Group 6) at a dose of 0.1 mg/kg body weight per day, to another group of three rabbits (Group 7) at a dose of 0.2 mg/kg body weight per day and to another group of three rabbits (Group 8) at a dose of 0.4 mg/kg body weight per day. A placebo consisting only of olive oil was administered from days 3 to 7 to a control group of 3 rabbits (placebo group). In parallel, 3 rabbits were kept under identical conditions but were not administered any treatment nor the aforementioned sodium hypochlorite solution (control group). […] On day 7 of the experiment all animals were euthanized and necropsied. […] Samples were taken at the peripheral level of the lung parenchyma, just below the pleural surface. Tissue samples were also taken from the nasal cavity, pharynx, larynx and bronchi. Immunohistochemistry studies were performed for all samples to evaluate the levels of the markers TGF-α, TGF-β 1, TGF-β 2, TGF-β 3 SPARC, MMP-3; MMP-7, MMP-9, MMP-11, MMP-14, TGF-β, TNF-α and VEGF. In said immunohistochemistry studies, a sample of each sample was dehydrated by treatment with increasing concentrations of ethanol and finally xylene. Subsequently said dried samples were embedded in paraffin, thus creating a block. Said paraffin blocks were cut on a microtome to a thickness of 5 μm, and the resulting sections (slices) were placed on slides suitable for conducting immunohistochemistry techniques. Subsequently, the sections were deparaffinised by immersion in xylene and then rehydrated through immersion in a series of solutions containing decreasing concentrations of ethanol and, finally, water. […] The samples were then allowed to cool to room temperature over 10 minutes. Endogenous peroxidase activity was blocked by treatment with 3% hydrogen peroxide over 30 min at room temperature. […] In order to verify the expression of NK1 receptors, the cell samples were incubated in the presence of anti-NK1 antibodies ([…], Sigma-Aldrich) diluted 1:1000 at 4° C. overnight. After this time they were washed in 0.05M Tris buffer at room temperature. Subsequently, Envision System-HRP (Dako) reagents were added for 30 min at room temperature. Once this time had expired, the samples were again washed with 0.05 M Tris buffer, and immunoreactivity was visualized by light microscopy with a chromogenic solution with 3,3'-diaminobenzidine (DAB+; Dako, USA). In order to differentiate the cell nuclei, these were lightly stained with haematoxylin. Samples that were not incubated with the primary antibody, but wherein this was replaced by a non-immune serum were used as negative controls. […]

[2] = Saturation concentration in olive oil:ethanol (9:1); type: physicochemical; settings: 25° C.
Method: Each of said mixtures was continuously and gently stirred for 10 minutes at ambient temperature (25° C.) and then maintained at rest for 60 minutes. The saturation concentration was considered to be that which was immediately less than a concentration where deposition was observed, but in which no deposition of the active ingredient was observed.

With `C[C@@H](OC1OCCN(Cc2nc(=O)[nH][nH]2)C1c1ccc(F)cc1)c1cc(C(F)(F)F)cc(C(F)(F)F)c1` (stereo in doubt) [Aprepitant, 5-([(2R,3S)-2-((R)-1-[3,5-bis(trifluoromethyl)phenyl]ethoxy)-3-(4-fluorophenyl)morpholino]methyl)-1H-1,2,4-triazol-3(2H)-one] the “Percent increase in TGFα with respect to the control group” value (“Percent increase in TGFα” below) ([1]; bronchial tissue, Group 1, oral 10 mg/kg per day) was 1,980.45%, the “Percent increase in TGFα” value ([1]; bronchial tissue, Group 2, oral 40 mg/kg per day) was 1,540.45% and the “Percent increase in TGFα” value ([1]; bronchial tissue, Group 3, oral 80 mg/kg per day) was 1,190.45%. For the same molecule, the “Percent increase in TGFα” value ([1]; bronchial tissue, Group 4, oral 100 mg/kg per day) was 873.34%, the “% Med G5/C: percent increase in marker TGFα with respect to the control group” value ([1]; bronchial tissue, Group 5) was 1,875.75% and the “% Med G6/C: percent increase in marker TGFα with respect to the control group” value ([1]; bronchial tissue, Group 6) was 1,267.45%. For the same molecule, the “% Med G7/C: percent increase in marker TGFα with respect to the control group” value ([1]; bronchial tissue, Group 7) was 689.78%, the “% Med G8/C: percent increase in marker TGFα with respect to the control group” value ([1]; bronchial tissue, Group 8) was 209.45% and the “Percent increase in TGFα” value ([1]; laryngeal tissue, Group 1, oral 10 mg/kg per day) was 1,875.56%. The “Percent increase in TGFα” value ([1]; laryngeal tissue, Group 2, oral 40 mg/kg per day) was 1,500.45%, the “Percent increase in TGFα” value ([1]; laryngeal tissue, Group 3, oral 80 mg/kg per day) was 1,320.32% and the “Percent increase in TGFα” value ([1]; laryngeal tissue, Group 4, oral 100 mg/kg per day) was 1,101.28%. For the same molecule, the “Percent increase in TGFα” value ([1]; laryngeal tissue, Group 5, inhalation 0.05 mg/kg per day) was 1,820.45%, the “Percent increase in TGFα” value ([1]; laryngeal tissue, Group 6, inhalation 0.1 mg/kg per day) was 1,250.74% and the “Percent increase in TGFα” value ([1]; laryngeal tissue, Group 7, inhalation 0.2 mg/kg per day) was 783.78%. The “Percent increase in TGFα” value ([1]; laryngeal tissue, Group 8, inhalation 0.4 mg/kg per day) was 234.67%, the “Percent increase in TGFα” value ([1]; lung tissue, Group 1, oral 10 mg/kg per day) was 1,717.76% and the “Percent increase in TGFα” value ([1]; lung tissue, Group 2, oral 40 mg/kg per day) was 1,308.73%. For the same molecule, the “Percent increase in TGFα” value ([1]; lung tissue, Group 3, oral 80 mg/kg per day) was 1,257.29%, the “Percent increase in TGFα” value ([1]; lung tissue, Group 4, oral 100 mg/kg per day) was 1,195.15% and the “Percent increase in TGFα” value ([1]; lung tissue, Group 6, inhalation 0.1 mg/kg per day) was 937.00%. For the same molecule, the “Percent increase in TGFα” value ([1]; lung tissue, Group 7, inhalation 0.2 mg/kg per day) was 402.39%, the “Percent increase in TGFα” value ([1]; lung tissue, Group 8, inhalation 0.4 mg/kg per day) was 147.11% and the “Percent increase in TGFα” value ([1]; nasal cavity tissue, Group 1, oral 10 mg/kg per day) was 2,824.89%. The “Percent increase in TGFα” value ([1]; nasal cavity tissue, Group 2, oral 40 mg/kg per day) was 1,907.98%, the “Percent increase in TGFα” value ([1]; nasal cavity tissue, Group 3, oral 80 mg/kg per day) was 1,347.22% and the “Percent increase in TGFα” value ([1]; nasal cavity tissue, Group 4, oral 100 mg/kg per day) was 952.16%. For the same molecule, the “Percent increase in TGFα” value ([1]; nasal cavity tissue, Group 5, inhalation 0.05 mg/kg per day) was 2,908.21%, the “Percent increase in TGFα” value ([1]; nasal cavity tissue, Group 6, inhalation 0.1 mg/kg per day) was 764.46% and the “Percent increase in TGFα” value ([1]; nasal cavity tissue, Group 7, inhalation 0.2 mg/kg per day) was 495.68%. The “Percent increase in TGFα” value ([1]; nasal cavity tissue, Group 8, inhalation 0.4 mg/kg per day) was 156.67%, the “Percent increase in TGFα” value ([1]; pharyngeal tissue, Group 1, oral 10 mg/kg per day) was 2,274.76% and the “Percent increase in TGFα” value ([1]; pharyngeal tissue, Group 2, oral 40 mg/kg per day) was 1,907.77%. For the same molecule, the “Percent increase in TGFα” value ([1]; pharyngeal tissue, Group 3, oral 80 mg/kg per day) was 1,780.45%, the “Percent increase in TGFα” value ([1]; pharyngeal tissue, Group 4, oral 100 mg/kg per day) was 1,550.34% and the “Percent increase in TGFα” value ([1]; pharyngeal tissue, Group 5, inhalation 0.05 mg/kg per day) was 1,946.43%. For the same molecule, the “Percent increase in TGFα” value ([1]; pharyngeal tissue, Group 6, inhalation 0.1 mg/kg per day) was 1,364.46%, the “Percent increase in TGFα” value ([1]; pharyngeal tissue, Group 7, inhalation 0.2 mg/kg per day) was 699.78% and the “Percent increase in TGFα” value ([1]; pharyngeal tissue, Group 8, inhalation 0.4 mg/kg per day) was 101.34%. The Saturation concentration [2] was 80 nM.

Source: patent US20170290774A1, “NEUROKININ-1 RECEPTOR ANTAGONIST COMPOSITION FOR TREATMENT OF DISEASES AND CONDITIONS OF THE RESPIRATORY TRACT” (PLUS VITECH, S.L., priority 2014, published 2017)
